Data taken from patent US20050079152A1, “Methods of elicit, enhance and sustain immune responses against MHC class I-restricted epitopes, for prophylactic or therapeutic purposes” (priority 2003, published 2005).

Tested on: SSX241-49 epitope specific T cells
Test: SSX2 tetramer staining in immunized mice
Format: in vivo
Conditions: for SSX2 antigen specificity, % of the available CD8 T cells (tetramer): entrained with pCBP plasmid, amplified with peptide analogue; for cross-reactivity with T cells specific for the SSX241-49 epitope: mouse, in vivo
From the text: These analogues are cross-reactive with T cells specific for the SSX241-49 epitope. These examples illustrate that the entrain-and-amplify protocol can elicit a SSX2 antigen specificity that approaches 80% of the available CD8 T cells. The pCBP plasmid and principles of its design are disclosed in U.S. patent application Ser. No. 10/292,413 (Pub. No. 20030228634 A1) entitled EXPRESSION VECTORS ENCODING EPITOPES OF TARGET-ASSOCIATED ANTIGENS AND METHODS FOR THEIR DESIGN, which is hereby incorporated by reference in its entirety. Additional methodology, compositions, peptides, and peptide analogues are disclosed in U.S. Provisional Application No. ______, (Attorney Docket MANNK.038PR), filed on the same date as the instant application, entitled “SSX-2 PEPTIDE ANALOGS;” which is incorporated herein by reference in its entirety. Further methodology, compositions, peptides., and peptide analogues are disclosed in U.S. Provisional Application No. ______, (Attorney Docket MANNK.039PR), filed on the same date as the instant application, entitled “NY-ESO PEPTIDE ANALOGS;” which is incorporated herein by reference in its entirety.

Row | Substance | SSX2 antigen specificity, % of the available CD8 T cells (tetramer) [%] | cross-reactivity with T cells specific for the SSX241-49 epitope
1 | K41Y: K41Y peptide analogue of SSX2-derived epitope KASEKIFYV (SSX2 41-49) (YASEKIFYV) | ~80 | cross-reactive
2 | SSX241-49 K41F: K41F peptide analogue of SSX2-derived epitope KASEKIFYV (SSX2 41-49) (FASEKIFYV) | ~80 | cross-reactive
